# Results from ChEMBL document CHEMBL1201862, “PubChem BioAssay data set” (2004).
#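 Method: 48-hour compound exposure of cells in 96-well plates, five concentrations, linear interpolation of endpoints. At the GI50, growth is halved.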 Calls of active or inactive are those of the source. Rule as the data show it: active = GI50 up to about 1.1 µM and inactive = higher.
# Legend:
# Test in all cases: NCI-60 cell line screen, 48 h
# HCC 2998 = system: HCC 2998
# UACC-62 = system: UACC-62
# NCI/ADR-RES = system: NCI/ADR-RES
# HOP-18 = system: HOP-18
# IGROV-1 = system: IGROV-1
# NCI-H226 = system: NCI-H226
# SF-539 = system: SF-539
# DLD-1 = system: DLD-1
# SF-295 = system: SF-295
# SN12C = system: SN12C
# HCT-116 = system: HCT-116
# SW-620 = system: SW-620
# HT-29 = system: HT-29
# HL-60 = system: HL-60
# A549 = system: A549
# COLO 205 = system: COLO 205
# NCI-H522 = system: NCI-H522
# UO-31 = system: UO-31
# OVCAR-3 = system: OVCAR-3
# DMS-273 = system: DMS-273
# OVCAR-4 = system: OVCAR-4
# HOP-62 = system: HOP-62
# KM-20L2 = system: KM-20L2
# SK-MEL-28 = system: SK-MEL-28
# SNB-75 = system: SNB-75
# XF498 = system: XF498
# RPMI-8226 = system: RPMI-8226
# EKVX = system: EKVX
# OVCAR-5 = system: OVCAR-5
# A498 = system: A498
# OVCAR-8 = system: OVCAR-8
# HOP-92 = system: HOP-92
# Malme-3M = system: Malme-3M
# SK-OV-3 = system: SK-OV-3
# KM12 = system: KM12
# K562 = system: K562
# RXF 393 = system: RXF 393
# MCF7 = system: MCF7
# NCI-H460 = system: NCI-H460
# MOLT-4 = system: MOLT-4
# SNB-78 = system: SNB-78
# SF-268 = system: SF-268
# U-251 = system: U-251
# CCRF-CEM = system: CCRF-CEM
# SK-MEL-2 = system: SK-MEL-2
# DMS-114 = system: DMS-114
# SNB-19 = system: SNB-19
# NCI-H23 = system: NCI-H23
# SK-MEL-5 = system: SK-MEL-5
# UACC-257 = system: UACC-257
# HCT-15 = system: HCT-15
# LOX IMVI = system: LOX IMVI
# CAKI-1 = system: CAKI-1
smiles,measurement,setting,value
CNC(=O)SCC(N)C(=O)O (stereo not drawn),GI50,HCC 2998,> 100 µM (inactive)
same,GI50,UACC-62,> 94.8 µM (inactive)
same,GI50,NCI/ADR-RES,> 100 µM (inactive)
same,GI50,HOP-18,> 78.2 µM (inactive)
same,GI50,IGROV-1,> 100 µM (inactive)
same,GI50,NCI-H226,> 84.7 µM (inactive)
same,GI50,SF-539,> 100 µM (inactive)
same,GI50,DLD-1,> 100 µM (inactive)
same,GI50,SF-295,> 66.2 µM (inactive)
same,GI50,SN12C,> 95.9 µM (inactive)
same,GI50,HCT-116,> 79.4 µM (inactive)
same,GI50,SW-620,> 85.9 µM (inactive)
same,GI50,HT-29,> 71.3 µM (inactive)
same,GI50,HL-60,25.2 µM (inactive)
same,GI50,A549,> 100 µM (inactive)
same,GI50,COLO 205,61.1 µM (inactive)
same,GI50,NCI-H522,> 67.9 µM (inactive)
same,GI50,UO-31,> 100 µM (inactive)
same,GI50,OVCAR-3,> 100 µM (inactive)
same,GI50,DMS-273,71.4 µM (inactive)
same,GI50,OVCAR-4,> 100 µM (inactive)
same,GI50,HOP-62,> 100 µM (inactive)
same,GI50,KM-20L2,> 100 µM (inactive)
same,GI50,SK-MEL-28,> 100 µM (inactive)
same,GI50,SNB-75,> 100 µM (inactive)
same,GI50,XF498,84.9 µM (inactive)
same,GI50,RPMI-8226,25.4 µM (inactive)
same,GI50,EKVX,> 100 µM (inactive)
same,GI50,OVCAR-5,> 100 µM (inactive)
same,GI50,A498,> 100 µM (inactive)
same,GI50,OVCAR-8,> 100 µM (inactive)
same,GI50,HOP-92,51.9 µM (inactive)
same,GI50,Malme-3M,> 100 µM (inactive)
same,GI50,SK-OV-3,> 100 µM (inactive)
same,GI50,KM12,> 100 µM (inactive)
same,GI50,K562,30.6 µM (inactive)
same,GI50,RXF 393,> 100 µM (inactive)
same,GI50,MCF7,> 100 µM (inactive)
same,GI50,NCI-H460,> 68.7 µM (inactive)
same,GI50,MOLT-4,38.2 µM (inactive)
same,GI50,SNB-78,> 100 µM (inactive)
same,GI50,SF-268,> 100 µM (inactive)
same,GI50,U-251,> 89.9 µM (inactive)
same,GI50,CCRF-CEM,25.8 µM (inactive)
same,GI50,SK-MEL-2,> 82 µM (inactive)
same,GI50,DMS-114,35.3 µM (inactive)
same,GI50,SNB-19,> 100 µM (inactive)
same,GI50,NCI-H23,> 84.1 µM (inactive)
same,GI50,SK-MEL-5,> 78.7 µM (inactive)
same,GI50,UACC-257,> 100 µM (inactive)
same,GI50,HCT-15,46 µM
same,GI50,LOX IMVI,42.2 µM (inactive)
same,GI50,CAKI-1,65.8 µM (inactive)
